Reference: patent US20220313835A1, “AMINOQUINOLINE COMPOUNDS, IMMUNOCONJUGATES, AND USES THEREOF” (BOLT BIOTHERAPEUTICS, INC., priority 2019, published 2022)

Tests used:
human TLR7 = biological target: T1, human TLR7 (Homo sapiens, UniProt Q9NYK1); assay: HEK Reporter Assay, HEK293 NFKB reporter cells expressing human TLR7; format: cell-based; settings: read-out: HEK-293 hTLR7 EC50
T1 construct: host or cells: HEK293 NF-kB reporter cells
T1 sequence (Q9NYK1 27-1049): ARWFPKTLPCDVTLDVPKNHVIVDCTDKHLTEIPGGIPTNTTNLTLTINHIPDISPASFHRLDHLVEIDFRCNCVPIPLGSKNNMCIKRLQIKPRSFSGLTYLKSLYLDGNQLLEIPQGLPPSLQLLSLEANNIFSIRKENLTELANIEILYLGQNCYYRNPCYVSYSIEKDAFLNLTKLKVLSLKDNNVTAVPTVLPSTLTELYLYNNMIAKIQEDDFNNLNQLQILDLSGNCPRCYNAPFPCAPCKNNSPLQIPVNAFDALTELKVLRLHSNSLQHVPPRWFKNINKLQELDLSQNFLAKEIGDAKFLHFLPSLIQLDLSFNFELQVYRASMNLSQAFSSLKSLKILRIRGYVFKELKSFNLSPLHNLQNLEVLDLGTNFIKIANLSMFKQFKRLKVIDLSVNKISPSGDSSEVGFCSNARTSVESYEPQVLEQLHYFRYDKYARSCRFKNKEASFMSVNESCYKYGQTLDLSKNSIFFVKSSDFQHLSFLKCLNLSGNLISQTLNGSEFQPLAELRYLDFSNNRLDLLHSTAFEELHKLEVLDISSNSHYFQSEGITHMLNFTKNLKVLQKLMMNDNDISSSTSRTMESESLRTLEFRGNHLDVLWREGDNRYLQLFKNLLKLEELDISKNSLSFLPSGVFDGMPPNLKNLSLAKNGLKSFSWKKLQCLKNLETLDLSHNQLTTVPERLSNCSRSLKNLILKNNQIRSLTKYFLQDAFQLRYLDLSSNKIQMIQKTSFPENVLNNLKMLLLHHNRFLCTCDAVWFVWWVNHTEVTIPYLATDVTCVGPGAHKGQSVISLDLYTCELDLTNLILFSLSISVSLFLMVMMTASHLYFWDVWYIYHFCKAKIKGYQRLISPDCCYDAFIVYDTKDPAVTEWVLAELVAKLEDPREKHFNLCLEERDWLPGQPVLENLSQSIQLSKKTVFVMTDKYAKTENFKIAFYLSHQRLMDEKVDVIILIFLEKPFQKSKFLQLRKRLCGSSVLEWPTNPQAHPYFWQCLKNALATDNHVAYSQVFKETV
Procedure: (§1) Each compound was characterized by mass spectrometry and shown to have the mass indicated. Activity against HEK293 NFKB reporter cells expressing human TLR7 or human TLR8 was measured according to Example 31.
(§2) HEK293 reporter cells expressing human TLR7 or human TLR8 were purchased from Invivogen and vendor protocols were followed for cellular propagation and experimentation. Briefly, cells were grown to 80-85% confluence at 5% CO2 in DMEM supplemented with 10% FBS, Zeocin, and Blasticidin. Cells were then seeded in 96-well flat plates at 4×10^4 cells/well with substrate containing HEK detection medium and immunostimulatory molecules. Activity was measured using a plate reader at 620-655 nm wavelength.

human TLR8 = biological target: T2, human TLR8 (Homo sapiens, UniProt Q9NR97); assay: HEK Reporter Assay, HEK293 NFKB reporter cells expressing human TLR8; format: cell-based; settings: read-out: HEK-293 hTLR8 EC50
T2 construct: host or cells: HEK293 NF-kB reporter cells
T2 sequence (Q9NR97 27-1041): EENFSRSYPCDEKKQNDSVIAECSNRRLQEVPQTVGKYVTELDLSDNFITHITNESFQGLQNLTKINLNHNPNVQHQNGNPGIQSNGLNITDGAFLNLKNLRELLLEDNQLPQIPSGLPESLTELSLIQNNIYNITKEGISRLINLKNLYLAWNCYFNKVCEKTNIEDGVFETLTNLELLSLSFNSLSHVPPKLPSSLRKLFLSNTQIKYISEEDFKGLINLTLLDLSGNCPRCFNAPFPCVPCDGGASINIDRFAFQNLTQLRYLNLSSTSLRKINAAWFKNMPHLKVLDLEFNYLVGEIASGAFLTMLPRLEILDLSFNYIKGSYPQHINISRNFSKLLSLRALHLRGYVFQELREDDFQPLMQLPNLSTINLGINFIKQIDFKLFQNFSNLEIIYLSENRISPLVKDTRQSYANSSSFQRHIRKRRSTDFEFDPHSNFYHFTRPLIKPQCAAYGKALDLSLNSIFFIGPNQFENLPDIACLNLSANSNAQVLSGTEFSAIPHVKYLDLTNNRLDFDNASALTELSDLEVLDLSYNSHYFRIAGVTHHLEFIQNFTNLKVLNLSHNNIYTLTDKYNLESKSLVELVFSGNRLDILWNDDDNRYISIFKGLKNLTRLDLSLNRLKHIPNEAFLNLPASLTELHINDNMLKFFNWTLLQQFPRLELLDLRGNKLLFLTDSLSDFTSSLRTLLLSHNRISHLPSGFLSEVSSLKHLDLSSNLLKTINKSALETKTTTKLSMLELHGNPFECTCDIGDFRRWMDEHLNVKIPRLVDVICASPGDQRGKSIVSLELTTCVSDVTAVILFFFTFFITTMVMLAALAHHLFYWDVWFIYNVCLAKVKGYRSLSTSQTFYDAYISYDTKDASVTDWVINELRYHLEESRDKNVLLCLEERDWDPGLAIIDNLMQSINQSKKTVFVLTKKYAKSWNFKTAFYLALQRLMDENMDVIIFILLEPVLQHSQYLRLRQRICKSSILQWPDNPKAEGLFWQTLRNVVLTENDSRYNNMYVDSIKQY
Procedure: as §1, §2

Row | Structure (SMILES) | EC50 (human TLR7) | EC50 (human TLR8)
1 | CCCCCc1cc2c(CCCCCNC(=O)Nc3cccc(C#N)c3)cccc2nc1N [AQ-2, 1-(5-(2-amino-3-pentylquinolin-5-yl)pentyl)-3-(3-cyanophenyl)urea] | > 9 µM | > 9 µM
2 | CCCCCc1cc2ccc(C(=O)Nc3ccc(N4CCC(C(=O)NCCNC(=O)OC(C)(C)C)CC4)nc3)cc2nc1N [AQ-10, tert-butyl N-[2-[[1-[5-[(2-amino-3-pentyl-quinoline-7-carbonyl)amino]-2-pyridyl]piperidine-4-carbonyl]amino]ethyl]carbamate] | > 9 µM | > 9 µM
3 | CCCCCc1cc2ccc(-c3cccc(S(=O)(=O)N4CC(CNC(=O)OC(C)(C)C)C4)c3)cc2nc1N [AQ-11, tert-butylN-[[1-[3-(2-amino-3-pentyl-7-quinolyl)phenyl]sulfonylazetidin-3-yl]methyl] carbamate] | > 9 µM | > 9 µM
4 | CCCCCc1cc2ccc(C(=O)Nc3ccc(N4CCC(C(=O)NCCN)CC4)nc3)cc2nc1N [AQ-14, 2-amino-N-(6-(4-((2-aminoethyl)carbamoyl)piperidin-1-yl)pyridin-3-yl)-3-pentylquinoline-7-carboxamide] | > 9 µM | > 9 µM
5 | CCCCCc1cc2ccc(-c3cccc(S(=O)(=O)N4CC(CN)C4)c3)cc2nc1N [AQ-12, 7-[3-[3-(aminomethyl)azetidin-1-yl]sulfonylphenyl]-3-pentyl-quinolin-2-amine] | > 9 µM | 1.48 µM
6 | CCCCCc1cc2ccc(-c3cccc(S(=O)(=O)N4CC(CO)C4)c3)cc2nc1N [AQ-5, (1-((3-(2-amino-3-pentylquinolin-7-yl)phenyl)sulfonyl)azetidin-3-yl)methanol] | > 9 µM | 0.562 µM
7 | CCCCCc1cc2c(CCCCCN/C(=N\c3cccc(C#N)c3)NCCOC)cccc2nc1N [AQ-18, 1-(5-(2-amino-3-pentylquinolin-5-yl)pentyl)-3-(3-cyanophenyl)-2-(2-methoxyethyl)guanidine] | > 9 µM | > 9 µM
8 | CCCCCc1cc2c(C#CCCCNC(=O)OC(C)(C)C)cc(-c3cccc(S(=O)(=O)N4CC(CO)C4)c3)cc2nc1N [AQ-16, tert-butyl N-[5-[2-amino-7-[3-[3-(hydroxymethyl)azetidin-1-yl]sulfonylphenyl]-3-pentyl-5-quinolyl]pent-4-ynyl]carbamate] | > 9 µM | > 9 µM
9 | CCCCCc1cc2ccc(-c3cccc(S(=O)(=O)N4CC(CN/C(=N\CCOC)Nc5cccc(C#N)c5)C4)c3)cc2nc1N [AQ-17, 1-((1-((3-(2-amino-3-pentylquinolin-7-yl)phenyl)sulfonyl)azetidin-3-yl)methyl)-3-(3-cyanophenyl)-2-(2-methoxyethyl)guanidine] | > 9 µM | > 9 µM
10 | CCCCCc1cc2c(CCCCCN)cc(-c3cccc(S(=O)(=O)N4CC(CO)C4)c3)cc2nc1N [AQ-13, [1-[3-[2-amino-5-(5-aminopentyl)-3-pentyl-7-quinolyl]phenyl]sulfonylazetidin-3-yl]methanol] | > 9 µM | > 9 µM
11 | CCCCCc1cc2c(CC3CCCN3C)cc(-c3cccc(S(=O)(=O)N4CC(CO)C4)c3)cc2nc1N (stereo not shown) [AQ-15, [1-[3-[2-amino-5-[(1-methylpyrrolidin-2-yl)methyl]-3-pentyl-7-quinolyl]phenyl]sulfonylazetidin-3-yl]methanol] | > 9 µM | 2.45 µM

Now from value to compound:

Row | EC50 (human TLR7) | EC50 (human TLR8) | Structure (SMILES)
12 | > 9 µM | > 9 µM | CCCN(CCC)C(=O)c1cc2ccccc2nc1N [AQ-6, 2-amino-N,N-dipropylquinoline-3-carboxamide]
13 | > 9 µM | > 9 µM | CCCCCc1cc2c(CCCCCNC=O)cccc2nc1N [AQ-4, N-(5-(2-amino-3-pentylquinolin-5-yl)pentyl)formamide]
14 | 0.252 µM | > 9 µM | CCCCCc1cc2c(CCCCCNC(C)=O)cccc2nc1N [AQ-1, N-(5-(2-amino-3-pentylquinolin-5-yl)pentyl)acetamide]
15 | > 9 µM | > 9 µM | CCCCCc1cc2c(CCCCCNC(=O)OC(C)(C)C)cccc2nc1N [AQ-3, tert-butyl (5-(2-amino-3-pentylquinolin-5-yl)pentyl)carbamate]
16 | > 9 µM | > 9 µM | CCCN(CCC)C(=O)c1cc2c(CCCCCN)cccc2nc1N [AQ-7, 2-amino-5-(5-aminopentyl)-N,N-dipropylquinoline-3-carboxamide]
17 | > 9 µM | 1.02 µM | CCCCCc1cc2c(CCCCCN(C)C)cccc2nc1N [AQ-8, 5-(5-(dimethylamino)pentyl)-3-pentylquinolin-2-amine]
